Assays:
[1] = molecular target: T1, endogenous PAR1 on EA.hy.926 endothelial cells (Homo sapiens, UniProt P25116); experiment: On cell Western (OCW) immunoassay of PAR1 cleavage on EA.hy.926 endothelial cells; type: cell-based; conditions: 1 hr at 4° C., 0.5 nM thrombin or 25 nM APC
T1 construct: untransfected EA.hy.926 endothelial cells expressing endogenous EPCR and PAR1; host or cells: EA.hy.926 endothelial cells
T1 sequence (P25116 22-425): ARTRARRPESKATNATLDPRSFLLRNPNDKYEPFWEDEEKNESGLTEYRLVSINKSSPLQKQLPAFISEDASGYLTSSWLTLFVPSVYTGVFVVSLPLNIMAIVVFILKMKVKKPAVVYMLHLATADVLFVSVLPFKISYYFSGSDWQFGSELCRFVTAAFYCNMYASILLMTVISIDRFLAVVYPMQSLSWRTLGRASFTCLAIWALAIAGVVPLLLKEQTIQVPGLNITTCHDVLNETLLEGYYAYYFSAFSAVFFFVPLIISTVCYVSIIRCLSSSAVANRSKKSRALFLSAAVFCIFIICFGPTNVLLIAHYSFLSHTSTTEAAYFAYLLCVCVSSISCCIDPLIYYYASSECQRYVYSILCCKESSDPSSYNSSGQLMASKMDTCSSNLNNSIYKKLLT
Protocol: Subsequently, these antibodies were used in an on cell Western (OCW) immunoassay on EA.hy.926 endothelial cells to determine whether APC cleaves PAR1 at Arg^46 in the presence of endogenous PAR1 and EPCR expression. […] Incubations were performed at 4° C. to minimize receptor recycling and internalization. After fixation and staining, antibody signals were normalized for total cell number using the cell permeable nuclear dye Draq5 and antibody signals for the goat anti-PAR1 antibodies (Ab87 and Origene) and ATAP2 were expressed as a fraction of the signal obtained for WEDE15 reflecting the total PAR1 present on the cell surface.
Detailed methods and steps used for the study shown in FIG. 5 are as follows: EA.hy.926 cells (ATCC: CRL-2922) were grown in black clear bottom 96 well plates (Nunc) in DMEM (Invitrogen #12430) supplemented with glutamax (Invitrogen #35050) and 10% FBS (Hyclone #35-011-CV) in a 37° C. cell incubator with a humidified atmosphere and 5% CO2 in air until confluency. […] After final washing with PBS/0.1% Tween, IR fluorescence of bound antibodies was determined using the Odyssey (Licor). Background fluorescence was determined by omitting the primary antibody and subtracting background values from all observed values.

[2] = molecular target: T2, synthetic PAR1 peptide (TR33-62) (Homo sapiens, UniProt P25116); experiment: Cleavage of synthetic PAR1 peptide TR33-62 by APC or thrombin, reverse phase HPLC and MALDI-TOF; type: biochemical; conditions: APC 500 nM or thrombin 5 nM, TR33-62 100 μM, HBS pH 7.4
T2 construct: purchased Biosynthesis; host or cells: chemical synthesis
T2 sequence (P25116 33-62 limits assumed): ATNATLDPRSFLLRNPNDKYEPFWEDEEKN
Excerpt: Samples were subjected to reverse phase HPLC on a C18 column while the eluent was monitored at 214 nm during a 0%-67% gradient of acetonitrile in water containing 0.1% trifluoroacetic acid. Peptide fragments were collected and subjected to MALDI-TOF (Scripps mass spectrometry core facility) analysis.

[3] = test system: VEGF-induced vascular leakage in SKH1 hairless mice; experiment: In vivo vascular permeability assay (modified Miles assay, VEGF-induced Evans blue extravasation in skin); parameters: species or system mouse; conditions: for decrease in vascular leakage compared to PBS control: 125 μg peptide i.v. retro-orbital 5 min before s.c. VEGF165, Evans blue at 700 nm; for vascular leakage in the absence of VEGF: BSA vehicle sites, 125 μg peptide i.v.
Protocol: To probe whether TR47-66 could induce vascular protective effects in vivo, a modification of the modified Miles assay was used in which vascular permeability is measured by the extravasation of Evans blue dye in the skin induced by local subcutaneous injection of vascular endothelial growth factor (VEGF)165. Immunocompetent SKH1 hairless mice were used to avoid the need for hair removal that often can result in artifactual leakage due to inflammation of the skin. Evans blue extravasation in the skin was quantified using the Odyssey near-infrared fluorescent imager at 700 nm. TR47-66 peptide or the control scrTR47 peptide were injected i.v. in the retro-orbital sinus 5 min before local subcutaneous injection of recombinant murine VEGF or BSA control and 30 min after i.v. administration of Evans blue. In the absence of TR47-66 (PBS control), VEGF induced clearly distinguishable areas of Evans blue extravasation, whereas after injection of BSA vehicle control only the needle points marking the injection site could be observed. Quantification of Evans blue extravasation by near infrared fluorescence at 700 nm eliminated the time consuming need for Evans blue extraction from punch biopsy and provided reliable and reproducible results. […] Thus, like APC, the TR47 peptide causes activation of Rac1, stabilizes endothelial barriers in vitro, and in vivo can markedly reduce vascular leakage. The study was approved by the Institutional Animal Care and Use Committee of The Scripps Research Institute and complied with National Institutes of Health guidelines. SK1H1-E hairless male (6 to 8 weeks old) were from Charles River Labs (Wilmington, Mass.). Vascular permeability was determined using a known VEGF-induced leakage model (Sanna et al., Nat. Chem. Biol. 2006; 2(8):434-441; and Miles et al., J Physiol 1952; 118(2):228-257) with some modifications. Briefly, 100 μL of a sterile-filtered solution containing 0.5% (w/v) Evans blue (Sigma) in 0.9% NaCl (Sigma) was injected in isofluran-anesthetized mice. After 30 min, 50 μL of peptides (125 μg; TR47 or scrTR47) or PBS were injected intravenously in the retro-orbital sinus of mice anesthetized with Ketamin-Xylazin (100 and 10 mg/kg, respectively). After 5 min, mice received subcutaneously 15 μL of 75 ng/injection recombinant mouse VEGF165 (BioVision, Milpitas, Calif.) in 0.1% BSA-PBS (3 sites on the right side of the abdomen) or vehicle (2 sites on the left side). After 30 min, mice were sacrificed, photographed, and Evans blue extravasation in the skin was determined using the Odyssey Imager (LI-COR Biosciences, Lincoln, Nebr.) in the 700 nm channel with 4 mm offset. Quantification of the intensity of the Evans blue dye signal was done using the Odyssey Application Software version 3.0. […]

Row | Substance | decrease of ATAP2 signal compared to WEDE15 [1] | cleavage sites in TR33-62 peptide [2] | decrease in vascular leakage compared to PBS control [3] | vascular leakage in the absence of VEGF [3]
1 | APC: Activated Protein C, serine protease with anticoagulant and cytoprotective cell signaling activities | 50% | cleaves this PAR1 peptide at Arg^46 as well as at Arg^41 | – | –
2 | GDENENEKPNWYELKEPDSF (scrambled sequence) [scr-TR47-66, control scrambled TR47-66 peptide containing scrambled residues 47-66, reference compound] | – | – | indiscriminate from PBS control | Neither TR47-66 nor scrTR47 affected vascular leakage
3 | NPNDKYEPFWEDEEKNESGL (listed as Homo sapiens) [TR47-66] | – | – | 45% | Neither TR47-66 nor scrTR47 affected vascular leakage
4 | thrombin | not significantly different | cleavage at Arg^41 | – | –
